Data on 4 molecules can be found in ChEMBL document CHEMBL5726170, “Histone demethylase inhibitors” (2019).

A short description of this assay: JMJD2C Assay: The ability of test compounds to inhibit the activity of JMJD2C was determined in 384-well plate format under the following reaction conditions: 0.3 nM JMJD2C, 300 nM H3K9me3-biotin labeled peptide (Anaspec cat #64360), 2 μM alpha-ketoglutaric acid in assay buffer of 50 mM HEPES, pH7.3, 0.005% Brij35, 0.5 mM TCEP, 0.2 mg/ml BSA, 50 μM sodium L-ascorbate, and 2 μM ammonium iron(II) sulfate. Reaction product was determined quantitatively by TR-FRET after the addition of detection reagent Phycolink Streptavidin-allophycocyanin (Prozyme) and Europium-anti-di-methylated histone H3 lysine 9 (H3K9me2) antibody (PerkinElmer) in the presence of 5 mM EDTA in LANCE detection buffer (PerkinElmer) at a final concentration of 50 nM and 1 nM, respectively.The assay reaction was initiated by the following: 2 μl of the mixture of 900 nM H3K9me3-biotin labeled peptide and 6 μM alpha-ketoglutaric acid with 2 μl of 11-point serial diluted inhibitor in 3% DMSO were added to each well of the plate, followed by the addition of 2 μl of 0.9 nM JMJD2C to initiate the reaction. The reaction mixture was incubated at room temperature for 30 min, and terminated by the addition of 6 μl of 5 mM EDTA in LANCE detection buffer containing 100 nM Phycolink Streptavidin-allophycocyanin and 2 nM Europium-anti-H3K9me2 antibody. Plates were read by EnVisionMultilabel Reader in TR-FRET mode (excitation at 320 nm, emission at 615 nm and 665 nm) after 1 hr incubation at rt. A ratio was calculated (665/615) for each well and fitted to determine inhibition constant (IC50).
In general, IC50 refers to the concentration at which inhibition is half-maximal. As to `O=C(O)c1ccncc1NCC1CCCc2c(Oc3ccccc3)cccc21` (centres undefined), the IC50 entry was “in the range around 5.5 µM”. With `O=C(O)c1ccncc1NCC1CCCc2c(OCC3CC3)cccc21` (centres undefined), the IC50 entry is “in the range around 5.5 µM”. For `O=C(O)c1ccncc1NCC1CCCc2cc(OC(F)(F)F)ccc21` (centres undefined) the value was “in the range around 5.5 µM”. For `O=C(O)c1ccncc1NCC1CCOc2cc(F)ccc21` (centres undefined) the value was “in the range around 0.55 µM”.
